Where two headings read alike, the source gives them in different places.
Experiments:
Type in all cases: in vivo
[1] = system: umbrella sedge (Cyperus difformis); assay: Test B flooded paddy test; details: Cyperus difformis, Flood, 1000 g ai/ha; scale 0 to 100; read-out: Plant response rating, Sedge, Umbrella
Outline: (§1)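 Visual injury scoring (0 = no effect, 100 = complete control) versus controls made 13 to 15 days after treatment in the greenhouse. Test species were grown in flooded paddy to the 2-leaf stage: rice, barnyardgrass, umbrella sedge, duck salad.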

[2] = system: duck salad (Heteranthera limosa); assay: Test B flooded paddy test; details: Heteranthera limosa, Flood, 1000 g ai/ha; scale 0 to 100; read-out: Plant response rating, Ducksalad
Outline: as §1

rice (Oryza sativa) = assay: Test B flooded paddy test; details: Oryza sativa, Flood, 1000 g ai/ha; scale 0 to 100; read-out: Plant response rating, Rice
Outline: as §1

[3] = system: barnyardgrass (Echinochloa crus-galli); assay: Test B flooded paddy test; details: Echinochloa crus-galli, Flood, 1000 g ai/ha; scale 0 (no effect) to 100 (complete control); read-out: Plant response rating, Barnyardgrass
Outline: as §1

[4] = system: giant foxtail (Setaria faberii); assay: Test B pre/postemergence; details: Setaria faberi; for pest or weed control at 62 g/ha: 62 g ai/ha; for pest or weed control at 250 g/ha: 250 g ai/ha
Outline: (§2)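 Scores reflect visual comparison with untreated controls, where 0 means no effect and 100 complete control. Plants stayed 13 to 15 days in the greenhouse after pre- or postemergence treatment with compounds carried in a non-phytotoxic solvent and surfactant.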

[5] = system: lambsquarters (Chenopodium album); assay: Test B pre/postemergence; details: Chenopodium album; for pest or weed control at 62 g/ha: 62 g ai/ha; for pest or weed control at 250 g/ha: 250 g ai/ha
Outline: as §2

[6] = system: velvetleaf (Abutilon theophrasti); assay: Test B pre/postemergence; details: Abutilon theophrasti; for pest or weed control at 62 g/ha: 62 g ai/ha; for pest or weed control at 250 g/ha: 250 g ai/ha
Outline: as §2

[7] = system: cocklebur (Xanthium strumarium); assay: Test B pre/postemergence; details: Xanthium strumarium; for pest or weed control at 62 g/ha: 62 g ai/ha; for pest or weed control at 250 g/ha: 250 g ai/ha
Outline: as §2

[8] = system: Surinam grass (Brachiaria decumbens); assay: Test B pre/postemergence; details: Urochloa decumbens; for pest or weed control at 62 g/ha: 62 g ai/ha; for pest or weed control at 250 g/ha: 250 g ai/ha
Outline: as §2

[9] = system: barnyardgrass (Echinochloa crus-galli); assay: Test B pre/postemergence; details: Echinochloa crus-galli; for pest or weed control at 62 g/ha: 62 g ai/ha; for pest or weed control at 250 g/ha: 250 g ai/ha
Outline: as §2

[10] = system: wheat (Triticum aestivum); assay: Test B pre/postemergence; details: Triticum aestivum; for plant injury at 62 g/ha: 62 g ai/ha; for plant injury at 250 g/ha: 250 g ai/ha
Outline: as §2

corn (Zea mays) = assay: Test B pre/postemergence; details: Zea mays; for Corn plant response rating (crop injury, 0 = no effect, 100 = complete kill) at 250 g/ha: 250 g ai/ha
Outline: as §2

[11] = system: pigweed (Amaranthus retroflexus); assay: Test B pre/postemergence; details: Amaranthus retroflexus; for pest or weed control at 62 g/ha: 62 g ai/ha; for pest or weed control at 250 g/ha: 250 g ai/ha
Outline: as §2

[12] = system: crabgrass (Digitaria sanguinalis); assay: Test B pre/postemergence; details: Digitaria sanguinalis; for pest or weed control at 62 g/ha: 62 g ai/ha; for pest or weed control at 250 g/ha: 250 g ai/ha
Outline: as §2

[13] = system: morningglory (Ipomoea coccinea); assay: Test B pre/postemergence; details: Ipomoea; for pest or weed control at 62 g/ha: 62 g ai/ha; for pest or weed control at 250 g/ha: 250 g ai/ha
Outline: as §2

[14] = system: blackgrass (Alopecurus myosuroides); assay: Test B postemergence; details: Alopecurus myosuroides, post-emergence
Outline: as §2

wild oat (Avena fatua) = assay: Test B postemergence; details: Avena fatua, post-emergence
Outline: as §2

[15] = pre-emergence, Preemergence, scale 0 to 100 (0 no effect, 100 complete control), read-out: Plant response rating, Barnyardgrass
[16] = pre-emergence, Preemergence, scale 0 to 100 (0 no effect, 100 complete control), read-out: Plant response rating, Wheat

CCOC(=O)c1nc(C2CC2)nc(N)c1Br [Compound 1, ethyl 6-amino-5-bromo-2-cyclopropyl-4-pyrimidinecarboxylate]
90%: pest or weed control at 250 g/ha ([4]; pre-emergence, Preemergence, scale 0 to 100 (0 no effect, 100 complete control), read-out: Plant response rating, Foxtail, Giant) | pest or weed control at 62 g/ha ([6]; post-emergence, Postemergence, scale 0 to 100 (0 no effect, 100 complete control), read-out: Velvetleaf plant response rating) | pest or weed control at 250 g/ha ([6]; post-emergence, Postemergence, scale 0 to 100, read-out: Plant response rating, Velvetleaf) | pest or weed control at 62 g/ha ([6]; pre-emergence, Preemergence, scale 0 to 100, 0 no effect, 100 complete control, read-out: Plant response rating, Velvetleaf) | pest or weed control at 62 g/ha ([7]; post-emergence, Postemergence, scale 0 to 100 (0 no effect, 100 complete control), read-out: Cocklebur plant response rating) | pest or weed control at 250 g/ha ([7]; post-emergence, Postemergence, scale 0 to 100, read-out: Plant response rating, Cocklebur) | pest or weed control at 62 g/ha ([7]; pre-emergence, Preemergence, scale 0 to 100, 0 no effect, 100 complete control, read-out: Plant response rating, Cocklebur) | pest or weed control at 250 g/ha ([8]; post-emergence, Postemergence, scale 0 to 100, read-out: Plant response rating, Surinam Grass) | pest or weed control at 250 g/ha ([9]; post-emergence, Postemergence, scale 0 to 100, read-out: Plant response rating, Barnyardgrass) | pest or weed control at 250 g/ha [9, 15] | pest or weed control at 62 g/ha ([11]; post-emergence, Postemergence, scale 0 to 100 (0 no effect, 100 complete control), read-out: Pigweed plant response rating) | pest or weed control at 62 g/ha ([11]; pre-emergence, Preemergence, scale 0 to 100, 0 no effect, 100 complete control, read-out: Plant response rating, Pigweed) | pest or weed control at 250 g/ha ([12]; post-emergence, Postemergence, scale 0 to 100, read-out: Plant response rating, Crabgrass) | pest or weed control at 62 g/ha ([12]; pre-emergence, Preemergence, scale 0 to 100, 0 no effect, 100 complete control, read-out: Plant response rating, Crabgrass) | pest or weed control at 250 g/ha ([12]; pre-emergence, Preemergence, scale 0 to 100 (0 no effect, 100 complete control), read-out: Plant response rating, Crabgrass) | pest or weed control at 62 g/ha ([13]; post-emergence, Postemergence, scale 0 to 100 (0 no effect, 100 complete control), read-out: Morningglory plant response rating) | pest or weed control at 62 g/ha ([13]; pre-emergence, Preemergence, scale 0 to 100, 0 no effect, 100 complete control, read-out: Plant response rating, Morningglory)
80%: pest or weed control at 1000 g/ha [2] | pest or weed control at 1000 g/ha [3] | pest or weed control at 250 g/ha ([4]; post-emergence, Postemergence, scale 0 to 100, read-out: Plant response rating, Foxtail, Giant) | pest or weed control at 250 g/ha ([8]; pre-emergence, Preemergence, scale 0 to 100 (0 no effect, 100 complete control), read-out: Plant response rating, Surinam Grass) | Corn plant response rating (crop injury, 0 = no effect, 100 = complete kill) at 250 g/ha (corn (Zea mays); pre-emergence, Preemergence, scale 0 to 100 (0 no effect, 100 complete control))
40%: pest or weed control at 62 g/ha ([14]; 62 g ai/ha, scale 0 to 100 (0 no effect, 100 complete control), read-out: Blackgrass plant response rating)
70%: plant injury at 1000 g/ha (rice (Oryza sativa)) | plant injury at 250 g/ha ([10]; post-emergence, Postemergence, scale 0 to 100, read-out: Plant response rating, Wheat) | Corn plant response rating (crop injury, 0 = no effect, 100 = complete kill) at 250 g/ha (corn (Zea mays); post-emergence, Postemergence, scale 0 to 100) | pest or weed control at 62 g/ha ([12]; post-emergence, Postemergence, scale 0 to 100 (0 no effect, 100 complete control), read-out: Crabgrass plant response rating) | pest or weed control at 250 g/ha ([14]; 250 g ai/ha, scale 0 to 100, read-out: Plant response rating, Blackgrass)
60%: pest or weed control at 62 g/ha ([8]; post-emergence, Postemergence, scale 0 to 100 (0 no effect, 100 complete control), read-out: Surinam Grass plant response rating) | pest or weed control at 62 g/ha [9, 15] | plant injury at 250 g/ha [10, 16] | pest or weed control at 250 g/ha (wild oat (Avena fatua); 250 g ai/ha, scale 0 to 100, read-out: Plant response rating, Oat, Wild)
50%: pest or weed control at 62 g/ha ([4]; post-emergence, Postemergence, scale 0 to 100 (0 no effect, 100 complete control), read-out: Foxtail, Giant plant response rating) | pest or weed control at 62 g/ha ([8]; pre-emergence, Preemergence, scale 0 to 100, 0 no effect, 100 complete control, read-out: Plant response rating, Surinam Grass) | pest or weed control at 62 g/ha ([9]; post-emergence, Postemergence, scale 0 to 100 (0 no effect, 100 complete control), read-out: Barnyardgrass plant response rating)
30%: pest or weed control at 62 g/ha ([4]; pre-emergence, Preemergence, scale 0 to 100, 0 no effect, 100 complete control, read-out: Plant response rating, Foxtail, Giant) | plant injury at 62 g/ha ([10]; post-emergence, Postemergence, scale 0 to 100 (0 no effect, 100 complete control), read-out: Wheat plant response rating) | plant injury at 62 g/ha [10, 16] | plant injury at 62 g/ha (corn (Zea mays); post-emergence, Postemergence, 62 g ai/ha, scale 0 to 100 (0 no effect, 100 complete control), read-out: Corn plant response rating)
20%: pest or weed control at 1000 g/ha [1] | Corn plant response rating (crop injury, 0 = no effect, 100 = complete kill) at 62 g/ha (corn (Zea mays); pre-emergence, Preemergence, 62 g ai/ha, scale 0 to 100, 0 no effect, 100 complete control) | pest or weed control at 62 g/ha (wild oat (Avena fatua); 62 g ai/ha, scale 0 to 100 (0 no effect, 100 complete control), read-out: Oat, Wild plant response rating)
100%: pest or weed control at 62 g/ha ([5]; post-emergence, Postemergence, scale 0 to 100 (0 no effect, 100 complete control), read-out: Lambsquarters plant response rating) | pest or weed control at 250 g/ha ([5]; post-emergence, Postemergence, scale 0 to 100, read-out: Plant response rating, Lambsquarters) | pest or weed control at 62 g/ha ([5]; pre-emergence, Preemergence, scale 0 to 100, 0 no effect, 100 complete control, read-out: Plant response rating, Lambsquarters) | pest or weed control at 250 g/ha ([5]; pre-emergence, Preemergence, scale 0 to 100 (0 no effect, 100 complete control), read-out: Plant response rating, Lambsquarters) | pest or weed control at 250 g/ha ([6]; pre-emergence, Preemergence, scale 0 to 100 (0 no effect, 100 complete control), read-out: Plant response rating, Velvetleaf) | pest or weed control at 250 g/ha ([7]; pre-emergence, Preemergence, scale 0 to 100 (0 no effect, 100 complete control), read-out: Plant response rating, Cocklebur) | pest or weed control at 250 g/ha ([11]; post-emergence, Postemergence, scale 0 to 100, read-out: Plant response rating, Pigweed) | pest or weed control at 250 g/ha ([11]; pre-emergence, Preemergence, scale 0 to 100 (0 no effect, 100 complete control), read-out: Plant response rating, Pigweed) | pest or weed control at 250 g/ha ([13]; post-emergence, Postemergence, scale 0 to 100, read-out: Plant response rating, Morningglory) | pest or weed control at 250 g/ha ([13]; pre-emergence, Preemergence, scale 0 to 100 (0 no effect, 100 complete control), read-out: Plant response rating, Morningglory)

Source: US8802597B2, “Herbicidal pyrimidines” (E I du Pont de Nemours and Company, priority 2003, dated 2014)
